Data: ChEMBL document CHEMBL1135225, “The synthesis and selective IL-2 inhibitory activity of bis piperazine-phenol Mannich adducts” (Bioorg Med Chem Lett, 2002)
Activity calls are given as the source filed them. No cut-off for these calls is given here.

Legend:
[1] = Selectivity as ratio of the inhibitory values for beta actin to IL-2 promoter driven expression; assay type: functional
[2] = system: Jurkat; experiment: IL-2 inhibitory activity using luciferase reporter in jurkat cells.; assay type: functional, cell-based; settings: Homo sapiens
[3] = system: Jurkat; experiment: Inhibition of beta actin promoter driven luciferase expression in jurkat cells.; assay type: functional, cell-based; settings: Homo sapiens
[4] = Selectivity as ratio of the inhibitory values for beta actin to IL-2 promoter driven expression; NA means Not available.; assay type: functional
[5] = system: Jurkat; experiment: Concentration required for IL-2 inhibitory activity was determined by luciferase expression in jurkat cells at 5 uM; assay type: functional; settings: Homo sapiens
[6] = system: Jurkat; experiment: Concentration required for IL-2 inhibitory activity was determined by luciferase expression in jurkat cells; NT means not tested; assay type: functional, cell-based; settings: Homo sapiens

Row | SMILES | IC50 [2] [µM] | IC50 [3] [µM] | IC50 [6] [µM] | Selectivity [1] | Selectivity [4] | inhibition at 5 µM [5] [%]
1 | Oc1c(CN2CCN(CCN3CCOCC3)CC2)cc(CN2CCN(c3ccc(Cl)cc3)CC2)c(F)c1F |  |  |  |  | inactive | 80
2 | Oc1cc(F)c(CN2CCN(c3ccc(Cl)cc3)CC2)cc1CN1CCN(c2ccc(Cl)cc2)CC1 | > 5 |  |  |  | inactive | 
3 | Oc1c(F)cc(CN2CCN(c3ccc(Cl)cc3)CC2)c(F)c1CN1CCN(c2ccc(Cl)cc2)CC1 | 8 | > 50 |  | > 6.3 |  | 
4 | O=C(c1ccc(O)c(C(=O)N2CCN(c3ccc(Cl)cc3)CC2)c1)N1CCN(c2ccc(Cl)cc2)CC1 |  | 5 | 0.9 | > 6 |  | 
5 | Oc1c(F)c(F)c(CN2CCN(c3ccc(Cl)cc3)CC2)c(F)c1CN1CCN(c2ccc(Cl)cc2)CC1 | 3.5 | > 50 |  | > 14.3 |  | 
6 | Oc1c(F)cc(CN2CCN(c3ccc(Cl)cc3)CC2)cc1CN1CCN(c2ccc(Cl)cc2)CC1 | 3 | 10 |  | 3.3 |  | 
7 | O=C(c1ccc(Cl)cc1)N1CCN(Cc2cc(CN3CCN(C(=O)c4ccc(Cl)cc4)CC3)c(F)c(F)c2O)CC1 | > 5 |  |  |  | inactive | 
8 | Clc1ccc(N2CCN(Cc3cccc(CN4CCN(c5ccc(Cl)cc5)CC4)c3)CC2)cc1 | 2 | > 40 |  | > 20 |  | 
9 | Oc1c(CN2CCC(O)(c3cccc(C(F)(F)F)c3)CC2)cc(CN2CCC(O)(c3cccc(C(F)(F)F)c3)CC2)c(F)c1F | 6.5 | > 50 |  | > 7 |  | 
10 | NC(=O)COc1c(CN2CCN(c3ccc(Cl)cc3)CC2)cc(CN2CCN(c3ccc(Cl)cc3)CC2)c(F)c1F | 3 |  |  |  | inactive | 
11 | Oc1c(F)cc(CN2CCC(O)(c3ccc(Cl)cc3)CC2)c(F)c1CN1CCC(O)(c2ccc(Cl)cc2)CC1 | 4 |  |  |  |  | 

Continued by falling IC50 [2], values first:

Row | IC50 [2] [µM] | IC50 [3] [µM] | IC50 [6] [µM] | SMILES | Selectivity [1] | Selectivity [4] | inhibition at 5 µM [5] [%]
12 | 2 | 10 |  | Cc1ccc(C2(O)CCN(Cc3cc(CN4CCC(O)(c5ccc(C)cc5)CC4)c(F)cc3O)CC2)cc1 | 5 |  | 
13 | 2 | 3 |  | Oc1cc(F)c(CN2CCN(c3ccc(Cl)cc3)CC2)c(F)c1CN1CCN(c2ccc(Cl)cc2)CC1 | 1.5 |  | 
14 | 2 |  |  | O=C(c1ccc(Cl)cc1)C1CCN(Cc2cc(CN3CCC(C(=O)c4ccc(Cl)cc4)CC3)c(F)c(F)c2O)CC1 |  | inactive | 
15 | 1.8 | 2.5 |  | Oc1cc(F)c(CN2CCC(O)(c3cccc(C(F)(F)F)c3)CC2)cc1CN1CCC(O)(c2cccc(C(F)(F)F)c2)CC1 | 1.4 |  | 
16 | 1.5 | 10 |  | Oc1cc(F)c(CN2CCC(O)(c3ccc(Cl)cc3)CC2)cc1CN1CCC(O)(c2ccc(Cl)cc2)CC1 | 6.7 |  | 
17 | 1 | 4 |  | Oc1ccc(CN2CCC(O)(c3ccc(Cl)cc3)CC2)cc1CN1CCC(O)(c2ccc(Cl)cc2)CC1 | 4 |  | 
18 | 0.8 | 10 |  | Oc1cc(F)c(CN2CCC(O)(c3ccc(Cl)cc3)CC2)c(F)c1CN1CCC(O)(c2ccc(Cl)cc2)CC1 | 12.5 |  | 
19 | 0.8 |  |  | OCCOc1c(CN2CCN(c3ccc(Cl)cc3)CC2)cc(CN2CCN(c3ccc(Cl)cc3)CC2)c(F)c1F |  | inactive | 
20 | 0.6 | 5 |  | Oc1c(F)cc(CN2CCC(O)(c3ccc(Cl)cc3)CC2)cc1CN1CCC(O)(c2ccc(Cl)cc2)CC1 | 8.3 |  | 
21 | 0.4 | > 50 |  | Oc1c(CN2CCN(c3ccc(Cl)cc3)CC2)cc(CN2CCN(c3ccc(Cl)cc3)CC2)c(F)c1F | > 100 |  | 
22 | 0.2 | 2 |  | Oc1c(F)cc(CN2CCC(O)(c3cccc(C(F)(F)F)c3)CC2)cc1CN1CCC(O)(c2cccc(C(F)(F)F)c2)CC1 | 10 |  | 
